Calls of active or inactive are those of the source. The rule behind the calls is not given here.

One assay deals with NS3h 2a (JFH1). Briefly: NS3 helicase inhibitors across HCV genotypes, late-stage follow-up, selectivity assay for HCV NS3 helicase inhibitor project, biochemical, real-time fluorescence, genotypes 2a and 1b, Set 2 (AID 504419). The note with it: Recombinant NS3 helicase, real-time fluorescence unwinding.
Another assay deals with NS3h 1b (con1). The assay is described as above. The note with it: Recombinant NS3 helicase, real-time fluorescence unwinding.

For `CC(C)C(C)(C#N)NC(=O)CSc1nc2scc(-c3ccco3)c2c(=O)n1-c1ccccc1` (stereo unspecified), the IC50 on NS3h 2a (JFH1) and on NS3h 1b (con1) was > 100 µM (inactive) throughout.
As for `NS(=O)(=O)c1ccc2nc(NC(=O)c3ccc4ncoc4c3)sc2c1`, the IC50 entry at NS3h 2a (JFH1) was “inactive”. Moreover, the IC50 on NS3h 1b (con1) is > 26.5 µM (inactive).
`O=C(NC(=S)Nc1ccc(-c2ccc(CO)o2)cc1)c1cccs1`: the IC50 on NS3h 2a (JFH1) and at NS3h 1b (con1) was > 100 µM (inactive) throughout.
For the molecule `Cc1ccc(C(=O)C2=C(O)C(=O)N(Cc3ccco3)C2c2cc(Cl)cc(Cl)c2)o1` (stereo unspecified), the IC50 at NS3h 2a (JFH1) and at NS3h 1b (con1) was > 100 µM (inactive) throughout.
As to `CCCCCCCCCc1nc2sc3c(c2c(=O)n1NC(=O)c1ccccc1[N+](=O)[O-])CC(C)(C)OC3`, the IC50 on NS3h 2a (JFH1) and on NS3h 1b (con1) was > 100 µM (inactive) in each case.
Consider `CNc1ccc(Br)cc(C(=O)/C=C/c2cc(OC)ccc2OC)c1=O`, for which the IC50 at NS3h 2a (JFH1) and at NS3h 1b (con1) was > 100 µM (inactive) throughout.
For `CCCCOc1ccc(C2C(C(=O)c3ccc(C)o3)=C(O)C(=O)N2c2cc(C)on2)cc1` (stereo unspecified), the IC50 on NS3h 2a (JFH1) and on NS3h 1b (con1) was > 100 µM (inactive) each time.
As for `CCCCCOc1ccc(C2C(C(=O)c3ccc(C)o3)=C(OC)C(=O)N2c2cc(C)on2)cc1` (stereo unspecified), the IC50 at NS3h 2a (JFH1) and at NS3h 1b (con1) was > 100 µM (inactive) each time.
For the molecule `CCCCOc1ccccc1C(=O)NNC(=S)NC(=O)c1ccccc1[N+](=O)[O-]`, the IC50 at NS3h 2a (JFH1) and at NS3h 1b (con1) was > 100 µM (inactive) in each case.
As to `O=c1c2c(-c3ccco3)csc2nc(SCc2cn3ncccc3n2)n1-c1ccccc1`, the IC50 on NS3h 2a (JFH1) and at NS3h 1b (con1) was > 100 µM (inactive) in each case.
Take `CN(C)S(=O)(=O)c1cccc(NC(=S)N/N=C/c2cc(Br)ccc2O)c1`: the IC50 on NS3h 2a (JFH1) and at NS3h 1b (con1) was > 100 µM (inactive) each time.
On to `Cc1ccc2nc(-c3ccc4nc(-c5ccc(NC(=O)c6ccc(F)cc6)cc5)sc4c3)sc2c1S(=O)(=O)O`, for which the concentration for half-maximal inhibition (IC50) on NS3h 2a (JFH1) is 2.75 µM; on NS3h 1b (con1) it was 5.38 µM.
As for `Cc1ccc2nc(-c3ccc4nc(-c5ccc6nc(-c7ccc8nc(-c9ccc(N)cc9)sc8c7)sc6c5)sc4c3)sc2c1S(=O)(=O)O`, the IC50 on NS3h 2a (JFH1) is 1.98 µM; at NS3h 1b (con1), 2.13 µM.

What is called IC50 is the point on the concentration scale where inhibition reaches its midpoint.

The record behind these values is PubChem BioAssay AID504419 (The Scripps Research Institute Molecular Screening Center, 2011).
